From publication PMC10241923 (British Journal of Cancer, 2023)

Target: CDK9 (Homo sapiens, UniProt P50750)
Test: CeTSA isothermal dose-response at […] °C in intact LNCaP cells, immunoblot
Assay type: cell-based

Sequence of CDK9 (P50750 whole entry): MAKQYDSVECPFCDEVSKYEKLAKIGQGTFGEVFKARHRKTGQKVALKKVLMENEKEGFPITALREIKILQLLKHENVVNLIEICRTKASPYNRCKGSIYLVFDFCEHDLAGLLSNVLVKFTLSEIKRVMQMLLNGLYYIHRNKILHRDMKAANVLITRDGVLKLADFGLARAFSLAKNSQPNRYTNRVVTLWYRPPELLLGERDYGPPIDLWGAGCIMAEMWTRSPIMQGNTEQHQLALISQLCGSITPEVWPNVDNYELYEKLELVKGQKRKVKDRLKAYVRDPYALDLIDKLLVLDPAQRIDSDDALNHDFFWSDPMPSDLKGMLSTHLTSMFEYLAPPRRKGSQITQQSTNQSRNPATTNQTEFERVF

In the case of `CC(C)c1cnn2c(NCc3ccccc3)cc(NC[C@H]3CCNC[C@@H]3O)nc12` [CT7001], the “CeTSA isothermal dose-response at 54 °C in intact LNCaP cells, immunoblot” value is reported as “has a degree of engagement also with CDK2 and CDK9 at higher concentrations”.
